From PMC8245773, “Brevibacillin 2V, a Novel Antimicrobial Lipopeptide With an Exceptionally Low Hemolytic Activity” (Frontiers in Microbiology, 2021)

Legend:
Experiment in all cases: Synergy assay, checkerboard method
E. coli ATCC 25922 = settings: for FICI: synergistic ≤0.5; for MIC of antibiotic at brevibacillin 0 mg/L / MIC of antibiotic at brevibacillin 2V 0 mg/L / MIC of antibiotic at brevibacillin I 0 mg/L / MIC of antibiotic at brevibacillin V 0 mg/L: checkerboard, 5 × 10^5 cfu/ml, 37°C, 20 h, antibiotic alone
Experimental: (§1) Briefly, antibiotics were diluted in twofold series, while brevibacillins were added at a certain final concentration of 1, 2, or 4 mg/L. Indicator strains were added at a final concentration of 5 × 10^5 cfu/ml. After incubation at 37°C for 20 h, the OD600 of plates was determined. The fractional inhibitory concentration index (FICI) was calculated using the following formula: FICI = (MIC compound A in combination with B / MIC compound A) + (MIC compound B in combination with A / MIC compound B).

K. pneumoniae LMG20218 = settings: for FICI: synergistic ≤0.5; for MIC of antibiotic at brevibacillin 0 mg/L / MIC of antibiotic at brevibacillin 2V 0 mg/L / MIC of antibiotic at brevibacillin I 0 mg/L / MIC of antibiotic at brevibacillin V 0 mg/L: checkerboard, 5 × 10^5 cfu/ml, 37°C, 20 h, antibiotic alone
Experimental: as §1

A. baumannii ATCC17978 = settings: for FICI / MIC of antibiotic at brevibacillin 0 mg/L / MIC of antibiotic at brevibacillin 2V 0 mg/L / MIC of antibiotic at brevibacillin I 0 mg/L / MIC of antibiotic at brevibacillin V 0 mg/L: A. baumannii ATCC17978; for FICI: synergistic ≤0.5; for MIC of antibiotic at brevibacillin 0 mg/L / MIC of antibiotic at brevibacillin 2V 0 mg/L / MIC of antibiotic at brevibacillin I 0 mg/L / MIC of antibiotic at brevibacillin V 0 mg/L: checkerboard, 5 × 10^5 cfu/ml, 37°C, 20 h, antibiotic alone
Experimental: as §1

P. aeruginosa LMG6395 = settings: for FICI: synergistic ≤0.5; for MIC of antibiotic at brevibacillin 0 mg/L / MIC of antibiotic at brevibacillin 2V 0 mg/L / MIC of antibiotic at brevibacillin I 0 mg/L / MIC of antibiotic at brevibacillin V 0 mg/L: checkerboard, 5 × 10^5 cfu/ml, 37°C, 20 h, antibiotic alone
Experimental: as §1

[1] = antibiotic + brevibacillin 2V, E. coli ATCC 25922
[2] = antibiotic + brevibacillin I, E.coli ATCC 25922
[3] = antibiotic + brevibacillin V, E.coli ATCC 25922
[4] = antibiotic + brevibacillin, E.coli ATCC 25922

| MIC of antibiotic at brevibacillin 0 mg/L (E. coli ATCC 25922; E.coli ATCC 25922) | MIC of antibiotic at brevibacillin 2V 0 mg/L (E. coli ATCC 25922; E.coli ATCC 25922) | MIC of antibiotic at brevibacillin I 0 mg/L (E. coli ATCC 25922; E.coli ATCC 25922) | MIC of antibiotic at brevibacillin V 0 mg/L (E. coli ATCC 25922; E.coli ATCC 25922) | MIC of antibiotic at brevibacillin 0 mg/L (K. pneumoniae LMG20218) | MIC of antibiotic at brevibacillin 2V 0 mg/L (K. pneumoniae LMG20218) | MIC of antibiotic at brevibacillin I 0 mg/L (K. pneumoniae LMG20218) | MIC of antibiotic at brevibacillin V 0 mg/L (K. pneumoniae LMG20218) | MIC of antibiotic at brevibacillin 0 mg/L (A. baumannii ATCC17978) | MIC of antibiotic at brevibacillin 2V 0 mg/L (A. baumannii ATCC17978) | MIC of antibiotic at brevibacillin I 0 mg/L (A. baumannii ATCC17978) | MIC of antibiotic at brevibacillin V 0 mg/L (A. baumannii ATCC17978) | SMILES | FICI (E. coli ATCC 25922; [1]) | FICI (E. coli ATCC 25922; [2]) | FICI (E. coli ATCC 25922; [3]) | FICI (E. coli ATCC 25922; [4]) | FICI (A. baumannii ATCC17978; antibiotic + brevibacillin 2V) | FICI (A. baumannii ATCC17978; antibiotic + brevibacillin I) | FICI (A. baumannii ATCC17978; antibiotic + brevibacillin V) | FICI (A. baumannii ATCC17978; antibiotic + brevibacillin) | other results |
| --- | --- | --- | --- | --- | --- | --- | --- | --- | --- | --- | --- | --- | --- | --- | --- | --- | --- | --- | --- | --- | --- |
| 2 µg/mL | 2 µg/mL | 2 µg/mL | 2 µg/mL | 16 µg/mL | 16 µg/mL | 16 µg/mL | 16 µg/mL | 16 µg/mL | 16 µg/mL | 16 µg/mL | 16 µg/mL | CC[C@H]1OC(=O)[C@H](C)[C@@H](O[C@H]2C[C@@](C)(OC)[C@@H](O)[C@H](C)O2)[C@H](C)[C@@H](O[C@@H]2O[C@H](C)C[C@H](N(C)C)[C@H]2O)[C@](C)(O)C[C@@H](C)CN(C)[C@H](C)[C@@H](O)[C@]1(C)O [Azithromycin] | 0.281 | 0.375 | 0.563 | 0.188 | 0.531 | 0.516 | 1.016 | 0.531 | FICI (K. pneumoniae LMG20218; antibiotic + brevibacillin 2V): 1.031; FICI (K. pneumoniae LMG20218; antibiotic + brevibacillin I): 1.016; FICI (K. pneumoniae LMG20218; antibiotic + brevibacillin V): 1.016; FICI (K. pneumoniae LMG20218; antibiotic + brevibacillin): 1.031; FICI (P. aeruginosa LMG6395; antibiotic + brevibacillin 2V): 0.266; FICI (P. aeruginosa LMG6395; antibiotic + brevibacillin I): 0.266; FICI (P. aeruginosa LMG6395; antibiotic + brevibacillin V): 0.516; FICI (P. aeruginosa LMG6395; antibiotic + brevibacillin): 0.516; MIC of antibiotic at brevibacillin 0 mg/L (P. aeruginosa LMG6395): 128 µg/mL; MIC of antibiotic at brevibacillin 2V 0 mg/L (P. aeruginosa LMG6395): 128 µg/mL; MIC of antibiotic at brevibacillin I 0 mg/L (P. aeruginosa LMG6395): 128 µg/mL; MIC of antibiotic at brevibacillin V 0 mg/L (P. aeruginosa LMG6395): 128 µg/mL |
| 4 µg/mL | 4 µg/mL | 4 µg/mL | 4 µg/mL | 0.5 µg/mL | 0.5 µg/mL | 0.5 µg/mL | 0.5 µg/mL | 16 µg/mL | 16 µg/mL | 16 µg/mL | 16 µg/mL | NCC[C@H](O)C(=O)N[C@@H]1C[C@H](N)[C@@H](O[C@H]2O[C@H](CN)[C@@H](O)[C@H](O)[C@H]2O)[C@H](O)[C@H]1O[C@H]1O[C@H](CO)[C@@H](O)[C@H](N)[C@H]1O [Amikacin] | 0.188 | 0.281 | 0.250 | 0.156 | 0.141 | 0.078 | 0.094 | 0.094 | FICI (K. pneumoniae LMG20218; antibiotic + brevibacillin 2V): 0.563; FICI (K. pneumoniae LMG20218; antibiotic + brevibacillin I): 0.563; FICI (K. pneumoniae LMG20218; antibiotic + brevibacillin V): 1.016; FICI (K. pneumoniae LMG20218; antibiotic + brevibacillin): 1.031; decrease of MIC of amikacin against A. baumannii (A. baumannii ATCC17978; in the presence of 4 mg/L brevibacillins): 32–64 folds; FICI (P. aeruginosa LMG6395; antibiotic + brevibacillin 2V): 0.266; FICI (P. aeruginosa LMG6395; antibiotic + brevibacillin I): 0.266; FICI (P. aeruginosa LMG6395; antibiotic + brevibacillin V): 0.266; FICI (P. aeruginosa LMG6395; antibiotic + brevibacillin): 0.266; MIC of antibiotic at brevibacillin 0 mg/L (P. aeruginosa LMG6395): 2 µg/mL; MIC of antibiotic at brevibacillin 2V 0 mg/L (P. aeruginosa LMG6395): 2 µg/mL; MIC of antibiotic at brevibacillin I 0 mg/L (P. aeruginosa LMG6395): 2 µg/mL; MIC of antibiotic at brevibacillin V 0 mg/L (P. aeruginosa LMG6395): 2 µg/mL |
| 4 µg/mL | 4 µg/mL | 4 µg/mL | 4 µg/mL | 64 µg/mL | 64 µg/mL | 64 µg/mL | 64 µg/mL | 32 µg/mL | 32 µg/mL | 32 µg/mL | 32 µg/mL | CO[C@H]1/C=C/O[C@@]2(C)Oc3c(C)c(O)c4c(O)c(c(/C=N/N5CCN(C)CC5)c(O)c4c3C2=O)NC(=O)/C(C)=C\C=C\[C@H](C)[C@H](O)[C@@H](C)[C@@H](O)[C@@H](C)[C@H](OC(C)=O)[C@@H]1C [Rifampicin] | 0.313 | 0.531 | 0.375 | 0.250 | 0.375 | 0.516 | 0.516 | 0.281 | FICI (P. aeruginosa LMG6395; antibiotic + brevibacillin 2V): 0.516; FICI (P. aeruginosa LMG6395; antibiotic + brevibacillin I): 0.516; FICI (P. aeruginosa LMG6395; antibiotic + brevibacillin V): 0.516; FICI (P. aeruginosa LMG6395; antibiotic + brevibacillin): 0.281; MIC of antibiotic at brevibacillin 0 mg/L (P. aeruginosa LMG6395): 32 µg/mL; MIC of antibiotic at brevibacillin 2V 0 mg/L (P. aeruginosa LMG6395): 32 µg/mL; MIC of antibiotic at brevibacillin I 0 mg/L (P. aeruginosa LMG6395): 32 µg/mL; MIC of antibiotic at brevibacillin V 0 mg/L (P. aeruginosa LMG6395): 32 µg/mL |
